Where two headings read alike, the source gives them in different places.
Columns and labels:
physchem = settings: LogPA
[1] = test system: Fusarium nivale (var. majus); assay: whole plant or invertebrate; assay type: in vivo; settings: Microdochium nivale, in Triticum aestivum, 120 h, read-out: % Wirkungsgrad (activity level)
Rhynchosporium secalis = assay: Example S: in vivo test on Rhynchosporium secalis (leaf scald in barley/protective); settings: 336 h, barley, protective, 1000 ppm active substance, assessed 14 days after inoculation, read-out: % Wirkungsgrad (activity level)
Description: Solvent: 49 parts by weight N,N-dimethylacetamide Emulsifier: 1 part by weight alkylaryl polyglycol ethers For the preparation of a suitable active substance preparation, 1 part by weight of active substance is mixed with the stated quantities of solvent and emulsifier and the concentrate is diluted to the desired concentration with water. For the testing for protective activity, young plants are sprayed with the active substance preparation at the stated application dosage. After drying of the spray coating, the plants are sprayed with spores with a spore suspension of Rhynchosporium secalis. […] 14 days after the inoculation, the assessment takes place.

Fusarium proliferatum = assay: Example I: production of fumonisin FB1 by Fusarium proliferatum (microtitre plates); assay type: cell-based; settings: 120 h
Alternaria solani = assay: Example M: in vivo test on Alternaria solani (leaf blotch disease/tomato/protective); settings: 168 h, tomato, protective, 500 ppm active substance, assessed 7 days after inoculation, read-out: % Wirkungsgrad (activity level)
Outline: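 Alternaria solani infection on tomato scored 7 days post-inoculation. Before inoculation, young plants received a protective spray at the stated application dose; formulation was compound mixed with N,N-dimethylformamide and emulsifier, water-diluted.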

Botrytis cinerea = assay: Example P: in vivo test on Botrytis cinerea (gray mould on bean/protective); settings: 48 h, bean, protective, 250 ppm active substance, assessed 2 days after inoculation, read-out: % Wirkungsgrad (activity level)
Outline: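 Infection blotch size on leaves was scored 2 days after placing 2 Botrytis-colonised agar pieces per leaf. Inoculation followed drying of a protective spray applied to young plants at the stated dosage. Spray was prepared by diluting compound with solvent and alkylaryl polyglycol ether emulsifier in water.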

Rhizoctonia solani = assay: Example W: in vivo test on Rhizoctonia solani (sheath blight in rice/protective); settings: 96 h, rice, protective, 250 ppm active substance, assessed 4 days after inoculation, read-out: % Activity level
Outline: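 Young rice plants sprayed protectively with compound in acetone/alkylaryl polyglycol ether emulsion diluted in water at stated dosage. Inoculated with R. solani hyphae one day later; disease assessed 4 days post-inoculation.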

Plasmopara viticola = assay: Example N: in vivo test on Plasmopara viticola (downy mildew, vine/protective); settings: 144 h, vine, protective, assessment 6 days after inoculation, read-out: % Wirkungsgrad
Outline: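 Assessment of downy mildew on vines took place 6 days post-inoculation, after 1 day of moist incubation. Before infection, the young plants received a protective spray of compound emulsified with alkylaryl polyglycol ethers and diluted with water to the stated application rate.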

Pyricularia oryzae = assay: whole plant or invertebrate; assay type: in vivo; settings: 120 h, read-out: % Activity level
Septoria tritici = assay: Example R: in vivo test on Septoria tritici (leaf blotch in wheat/protective); settings: Zymoseptoria tritici, 504 h, wheat, protective, 1000 ppm active substance, assessed 21 days after inoculation, read-out: % Wirkungsgrad (activity level)
Outline: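 Protective test: young wheat plants sprayed with compound in N,N-dimethylacetamide/alkylaryl polyglycol ether emulsifier diluted in water, dried, then inoculated with Septoria tritici spore suspension. Disease assessed 21 days after inoculation.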

Pythium ultimum = assay: Example U: in vivo test on Pythium ultimum (root rot/damping off in cotton/seed treatment); settings: 50 g/dt; cotton seed treatment; emergence counted after 7 days
Description: The test was performed under greenhouse conditions. Cotton seeds, treated with an active compound according to the invention or a combination of active compounds according to the invention were sown in 6*6 cm size vessels, in a mixture of steamed field earth and sand (1:1). The test compound/s were dissolved in N-methyl-2-pyrrolidone and diluted to the desired concentration with water. The plants were grown at 10° C. Perlite was inoculated with mycelium from Pythium ultimum. 1 mL of the infected perlite was distributed between the treated cotton seeds. […] The assessment was made by counting the emergence.

Sphaerotheca fuliginea = assay: Example L: in vivo test on Sphaerotheca fuliginea (powdery mildew on cucumber/protective); settings: Podosphaera fuliginea, 168 h, cucumber, protective, assessment 7 days after inoculation, read-out: % Wirkungsgrad
Outline: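 Young cucumber plants sprayed at stated dosage with compound in DMF/alkylaryl polyglycol ether emulsifier diluted in water; inoculated with S. fuliginea spores one day later. Kept in greenhouse at 70% relative humidity, 23° C; protective activity assessed 7 days after inoculation.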

Gibberella zeae = assay type: in vivo; settings: 250 ppm; rice, protective; assessment 5 days after inoculation
Leptosphaeria nodorum = assay: Example Q: in vivo test on Leptosphaeria nodorum (glume blotch in wheat/protective); settings: Parastagonospora nodorum, 192 h, wheat, protective, assessment 8 days after inoculation, read-out: % Wirkungsgrad
Outline: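 Protective test: young wheat plants sprayed with compound formulated in N,N-dimethylacetamide plus alkylaryl polyglycol ether emulsifier, diluted in water to the stated dose. After drying, plants inoculated with L. nodorum spore suspension; disease assessed 8 days post-inoculation.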

Fusarium graminearum [2] = assay: microbe, parasite or virus in culture; assay type: cell-based
Venturia inaequalis = assay: Example O: in vivo test on Venturia inaequalis (apple scab/protective); settings: 240 h, protective, assessment 10 days after inoculation, read-out: % Wirkungsgrad
Outline: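 Young plants received a preventive spray of compound formulated as an emulsifier-containing aqueous dilution at the given application rate, then were inoculated with apple scab fungus. Disease was scored 10 days post-inoculation.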

Cochliobolus miyabeanus = assay: Example X: in vivo test on Cochliobolus miyabeanus (brown spot disease, rice/protective); settings: Bipolaris oryzae, 96 h, read-out: % Activity level
Fusarium graminearum [3] = assay: whole plant or invertebrate; assay type: in vivo; settings: in Hordeum vulgare, 120 h, read-out: % Wirkungsgrad (activity level)

## CCC(=O)Nc1cc(-c2cn(CC)nc2-c2ccc(F)cc2)ccn1 [Compound 198]
physchem
  chromatographic logP: 1.82
[1]
  pest or weed control at 1000 ppm: 100%
Rhynchosporium secalis
  pest or weed control at 1000 ppm: 90%
Fusarium proliferatum; Fusarium proliferatum growth, OD 620, 5 days, read-out: % Inhibition des Pilzwachstums bei 50 μM
  inhibition at 50 µM: 99%
Fusarium proliferatum; Fusarium proliferatum, 5 days at 20° C., HPLC-MS/MS, read-out: % Inhibition der FB1 produktion bei 50 μM
  inhibition at 50 µM: 100%
Alternaria solani
  pest or weed control at 500 ppm: 93%
Botrytis cinerea
  pest or weed control at 250 ppm: 99%
Rhizoctonia solani
  pest or weed control at 250 ppm: 88%
Plasmopara viticola
  pest or weed control at 100 ppm: 92%
Pyricularia oryzae
  pest or weed control at 250 ppm: 85%
Septoria tritici
  pest or weed control at 1000 ppm: 100%
Pythium ultimum
  % Activity level: 88%
Sphaerotheca fuliginea
  pest or weed control at 500 ppm: 99%
Gibberella zeae
  % Activity level: 80%
Leptosphaeria nodorum
  pest or weed control at 1000 ppm: 100%
Fusarium graminearum [2]; 72 h, read-out: % Inhibition des Pilzwachstums bei 50 μM
  inhibition at 50 µM: 100%
Fusarium graminearum [2]; 168 h, read-out: % Inhibition der DON/AcDON produktion bei 50 μM
  inhibition at 50 µM: 100%
Venturia inaequalis
  pest or weed control at 100 ppm: 96%
Cochliobolus miyabeanus
  pest or weed control at 250 ppm: 90%
Fusarium graminearum [3]
  pest or weed control at 1000 ppm: 100%
